The assay concerns the target T1, alpha-glucosidase enzyme from Saccharomyces cerevisiae (EC 3.2.1.20) (Saccharomyces cerevisiae, UniProt P53341).
T1 construct: purchased Sigma-Aldrich
Briefly: biochemical. Format: biochemical. The procedure: Briefly, the enzyme from Saccharomyces cerevisiae (EC 3.2.1.20) and the pNPG substrate were dissolved in 0.1 M phosphate buffer (pH 7), which was enriched by bovine serum albumin and sodium azide. Standards and samples were suspended in 20% (v/v) of DMSO in a water solution. In a 96-well plate, 50 µl of PBS, standards, samples and enzyme solutions were mixed and incubated for 2 min at 37 °C. At last, 50 µl of 4 mM pNPG was added and incubated for 5 min before the kinetic parameter measurement, as described earlier.
The velocity was examined by a linear relationship equation between absorbance and time, Equation (1).
The percent inhibition was determined for the highest velocity as:% Inhibition = (V control − V sample)/(V control) × 100(2)
The IC50 value was calculated by using a calibration curve equation between samples at five different concentrations and inhibition percentages.

The mark [1] stands for this setting: isolated compounds (Table 2), read-out: IC50 (converted).

Like-named read-outs stand apart in the source and are kept apart here.

T1 sequence (P53341 whole entry): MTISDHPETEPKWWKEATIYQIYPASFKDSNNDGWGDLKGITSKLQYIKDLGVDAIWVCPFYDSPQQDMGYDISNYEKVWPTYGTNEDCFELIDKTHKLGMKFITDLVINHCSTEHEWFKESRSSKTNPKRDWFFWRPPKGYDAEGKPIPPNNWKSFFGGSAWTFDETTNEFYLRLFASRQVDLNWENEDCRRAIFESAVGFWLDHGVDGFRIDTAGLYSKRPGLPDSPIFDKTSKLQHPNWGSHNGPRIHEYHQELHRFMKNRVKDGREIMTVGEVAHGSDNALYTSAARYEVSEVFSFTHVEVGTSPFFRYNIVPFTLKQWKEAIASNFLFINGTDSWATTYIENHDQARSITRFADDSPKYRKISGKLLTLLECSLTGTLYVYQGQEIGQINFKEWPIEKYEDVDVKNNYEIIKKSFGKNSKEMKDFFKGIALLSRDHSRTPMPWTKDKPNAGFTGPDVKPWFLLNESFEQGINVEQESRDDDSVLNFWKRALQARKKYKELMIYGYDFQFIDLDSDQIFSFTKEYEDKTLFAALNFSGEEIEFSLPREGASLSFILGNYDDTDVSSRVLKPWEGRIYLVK

Regarding `COc1ccc(/C=C/C(=O)c2ccc(O)cc2O)cc1O` [3,2’ ,4’-trihydroxy-4-methoxychalcone, 3,2’,4’-trihydroxy-4-methoxychalcone], the IC50 under setting [1] was 4450 µM. The same measure, in the same setting: then `COc1ccc(/C=C/C(=O)c2ccc(O)cc2O)cc1` [4-methyl ether isoliquiritigenin], with 814 µM. Turning to `O=c1cc(-c2ccc(O)c(O)c2)oc2cc(O)ccc12` [5-deoxyluteolin], under setting [1], the IC50 was 2130 µM. Moreover, the “IC50 fold higher compared to luteolin” value (ratio of IC50 values) amounted to 3.5 fold. Regarding `O=c1cc(-c2ccc(O)c(O)c2)oc2cc(O)cc(O)c12` [Luteolin, luteolin], the IC50 under setting [1] was 573 µM. `C[C@@H]1O[C@@H](Oc2c(-c3ccc(O)c(O)c3)oc3cc(O)cc(O)c3c2=O)[C@H](O)[C@H](O)[C@H]1O` [Quercitrin, quercitrin] gave an IC50 of 111 µM. Under “ratio of IC50 values”, the “inhibitory activity drop compared with quercetin (sugar moiety added)” value is reported as “roughly 10 fold”.

The term IC50 denotes the midpoint of a concentration-inhibition curve.

The record behind these values is publication PMC8512368, “Alpha-Glucosidase Inhibitory Assay-Screened Isolation and Molecular Docking Model from Bauhinia pulla Active Compounds” (Molecules, 2021).
